Among the data in patent US10292960B2, “Anticancer agent comprising aminoacetonitrile compound as active ingredient” (PITNEY PHARMACEUTICALS PTY LIMITED, priority 2013, dated 2019) are IC50 values, retold here.

Experiment [1] deals with HOSE cell (normal ovary cell line). In words: Cell growth inhibitory activity against HOSE cell (comparison target). The experiment is classed as cell-based. As to conditions: cultured 72 hr, sulforhodamine B. The protocol:
(§1) A cell suspension of oophoroma cell line (A2780) prepared to 2 to 3×10^3/well was added to a well microplate, a given amount of a test substance (0, 1.25, 2.5, 5, 10, 12.5, 20, 25, 50, 100 μM) was added to the culture medium, and the mixture was cultured for 72 hr. Thereafter, 0.4% sulforhodamine B was added to each well, and the absorbance at 570 nm was measured by a microplate reader. The cell growth inhibition ratio was calculated from the above-mentioned formula, and IC50 value was determined from the data. The same test was performed using HOSE cell (normal ovary cell line) as a comparison target instead of A2780 cell, and IC50 value was determined.

The subject of experiment [2] is oophoroma cell line (A2780). In words: Test for cell growth inhibitory activity against A2780 (epithelial ovarian cancer). The experiment is classed as cell-based. The settings on record: cultured 72 hr, sulforhodamine B. The protocol: An experiment was performed according to the method described in Ahmed SA et al., 1994. Journal of Immunological Methods 170: 211-224, or Boyed M R et al., 1989.
as §1

For the molecule `CC(C#N)(COc1ccc(C(F)(F)F)cc1)NC(=O)c1ccc(C(F)(F)C(F)(F)F)cc1` (racemic) [1-10], the figures for the IC50 in experiment [1] and in experiment [2] were 49.4 µM and 10.3 µM, respectively.

Consider `CC(C#N)(COc1ccc(C#Cc2ccccc2)cc1)NC(=O)c1ccc(C(F)(F)F)cc1` (racemic) [1-25], for which the IC50 – broadly, the point on the concentration scale where inhibition reaches its midpoint – in experiment [1] is 15.3 µM; in experiment [2], 4.53 µM.

For the molecule `CC(C#N)(COc1ccc(C(F)(F)F)cc1)NC(=O)c1cccc(OC(F)(F)F)c1` (racemic) [1-29], the IC50 in experiment [2] was determined as 13.3 µM. Still for that read-out and setting: the result for `Cn1nc(C(F)(F)F)cc1C(=O)NC(C)(C#N)COc1ccc(Cl)cc1` (racemic) [1-39] reads 6.97 µM; that for `CC(C)(C)C(C#N)(COc1ccc(C(F)(F)F)cc1)NC(=O)c1ccc(Cl)cc1Cl` (racemic) [1-56], 11.4 µM. For the molecule `CC(C)C(C#N)(COc1ccc(Cl)cc1)NC(=O)Cc1cccc(Cl)c1` (stereo not drawn) [2-27], the IC50 in experiment [1] came to 15.8 µM; in experiment [2], 8.81 µM. In experiment [2], `CC(C#N)(COc1ccc(C(F)(F)F)cc1)NC(=O)Cc1ccc(C(F)(F)C(F)(F)C(F)(F)F)cc1` (stereo not drawn) [2-109] came in with a half-inhibitory concentration (IC50) of 3.77 µM.

With `CC(C#N)(COc1ccc(Cl)cc1)NC(=O)Cc1ccc(SC(F)(F)C(F)(F)C(F)(F)F)cc1` (stereo not drawn) [2-114], the values for the IC50 in experiment [1] and in experiment [2] were 19.9 µM and 3.53 µM, respectively. For the molecule `CC(C)(C)C#Cc1ccc(OCC(C)(C#N)NC(=O)Cc2ccc(C(F)(F)F)cc2)cc1` (stereo not drawn) [2-120], the IC50 stood at 10.4 µM in experiment [1] and 6.2 µM in experiment [2]. `CCCCCCCCOCC(C)(C#N)NC(=O)Cc1ccc(C(F)(F)F)cc1` (stereo not drawn) [4-1] showed an IC50 in experiment [2] of 7.22 µM.
